Test results reported in patent US10272061B2, “Compositions and methods for unoccluded transdermal oxybutynin therapy” (Allergan Sales, LLC, priority 2000, dated 2019).
Read-outs that look alike come from different tables or passages of the source. One block for each compound: values may come before it.

Experiments:
[1] = Plasma concentrations after single application of 4.4% oxybutynin topical gel to the abdomen; format: in vivo, human; conditions: single 3 g of 4.4% oxybutynin gel, 400 cm^2 abdomen; for time over which mean plasma levels increased steadily to Cmax: 'during the following' hours
From the text: (§1) A clinical study in 22 healthy volunteers, 19 to 45 years of age, evaluated plasma concentrations of oxybutynin and the N-desethyloxybutynin metabolite after a single topical application of oxybutynin gel. The study employed a single dose design to evaluate the pharmacokinetics and skin tolerability of a gel formulation for oxybutynin hydrochloride.
(§2) Volunteers received a single topical administration of 3 g of 4.4% oxybutynin gel to a 400 cm^2 area of unbroken skin on the abdomen. Blood samples were periodically collected throughout the study period and plasma was harvested according to standard procedures. Plasma oxybutynin and N-desethyloxybutynin metabolite concentrations were estimated using a high performance liquid chromatography-tandem mass spectrometry method performed according to established guidelines.

[2] = Plasma concentrations after single application of 13.2% oxybutynin topical gel to the abdomen; format: in vivo, human; conditions: single 1 g of 13.2% oxybutynin gel, 133 cm^2 abdomen; for time over which mean plasma levels increased steadily to Cmax: 'during the following' hours
From the text: as §1
as §2, with “1” for “3”, “13.2%” for “4.4%”, “133” for “400”

[3] = Single and multiple dose pharmacokinetics after oxybutynin gel administration; format: in vivo, human; conditions: for mean Cmax: 72 hour evaluation; for half-life: read-out: elimination half-life (converted)
Description: A clinical study in 20 healthy volunteers, 20 to 44 years of age, evaluated the single and multiple dose pharmacokinetics of oxybutynin and N-desethyloxybutynin following topical oxybutynin gel administration. The study employed a two-period multiple dose study.
In the first treatment period, volunteers received a topical administration of 3 g of 4.4% oxybutynin gel followed by a 72 hour evaluation period. The second treatment period, oxybutynin gel was administered topically to the volunteers on 7 consecutive mornings. The two treatment periods were separated by a 7-day washout period. Blood samples were periodically collected throughout the study periods and plasma was harvested according to standard procedures. Plasma oxybutynin and N-desethyloxybutynin metabolite concentrations were estimated using high performance liquid chromatography-tandem mass spectrometry method performed according to established guidelines.
After a 7-day washout following the initial gel application, subjects applied daily 3 g doses of oxybutynin gel to rotating body sites (abdomen, upper arms, thighs) for 7 consecutive days. Plasma samples were drawn each morning before the next gel application.

[4] = Single-dose pharmacokinetics after oxybutynin gel on 400 cm^2 and 800 cm^2 application areas on the thighs; format: in vivo, human; conditions: 3 g of 4.4% oxybutynin gel; for Cmax: at 48 hours
From the text: A clinical study in 21 healthy volunteers, 21 to 45 years of age, evaluated the effect of application surface area on the single-dose pharmacokinetic of oxybutynin following topical oxybutynin gel administration. The study employed a two-period, open-labeled, randomized crossover design to evaluate the effect of application surface area on the single dose pharmacokinetics and safety of a topical gel formulation of oxybutynin hydrochloride.
Volunteers received topical administrations of 3 g of 4.4% oxybutynin gel at the beginning of two 72 hour treatment periods, with a minimum six day washout separating the treatment periods. Each volunteer received a dose applied to a 400 cm^2 area in one treatment period, and a dose to an 800 cm^2 area the other treatment period. The sequential order of the treatment periods was randomized. Blood samples were periodically collected throughout the study periods and plasma was harvested according to standard procedures. Plasma oxybutynin and N-desethyloxybutynin metabolite concentrations were evaluated using high performance liquid chromatography-tandem mass spectrometry method performed according to established guidelines.

[5] = Plasma concentrations after single and repeated application of 4.4% oxybutynin gel to the abdomen; format: in vivo; conditions: human, topical, once daily
From the text: as §1, with “in 12” for “in 22”, “to 41” for “to 45”, “after” for “after a”, “single and repeated” for “single”, “topical applications” for “topical application”, “a single-period, open-label, multiple” for “a single”
as §2, with “received” for “received a single”, “topical administrations” for “topical administration”, “gel on 3 consecutive mornings. Each volunteer received the oxybutynin gel administrations on” for “gel to”, “a defined” for “a 400 cm^2”, “using” for “using a”

[6] = plasma, first period: single 3 g of 4.4% oxybutynin gel
[7] = second period: 7 consecutive daily 3 g gel applications
[8] = 400 cm^2 application area, thighs
[9] = 800 cm^2 application area, thighs
[10] = human, topical, plasma, read-out: elimination half-life (converted)
[11] = first period: single 3 g of 4.4% oxybutynin gel
[12] = second period, after the final of 7 daily gel applications

SMILES: CCNCC#CCOC(=O)C(O)(c1ccccc1)C1CCCCC1 (stereo not shown) [N-desethyloxybutynin]
elimination half-life ([1]; plasma): approximately 26.81 hours
time of second plasma peak after dosing [1]: approximately 48 hours
mean maximum plasma concentration (Cmax) ([1]; healthy volunteers): 2.20 ng/mL
time at which measurable plasma levels were detectable (first sampling point) ([1]; healthy volunteers): 2 h
time over which mean plasma levels increased steadily to Cmax [1]: 28 h
elimination half-life ([2]; plasma): 19.53 h
mean Cmax ([2]; plasma, healthy volunteers): 1.12 ng/mL
time of second plasma peak after dosing [2]: approximately 48 hours
time at which measurable plasma levels were detectable (first sampling point) ([2]; healthy volunteers): 2 h
time over which mean plasma levels increased steadily to Cmax [2]: 28 h
mean Cmax [3, 6]: 4.50 ng/mL
mean AUC ([3]; plasma, first period: single 3 g of 4.4% oxybutynin gel, 72 hour treatment period): 157 ng·h/mL
mean AUC ([3]; plasma, second period, first 24 hours after the final of 7 daily 3 g gel applications): 125 ng·h/mL
time of maximum concentration after the final gel application [3, 7]: approximately 16 hours
mean Cmax following the final gel application ([3]; second period: 7 consecutive daily 3 g gel applications, N-desethyloxybutynin: maximum for the 0-24 hour interval): 6.44 ng/mL
mean plasma level at the initial peak [4, 8]: 2.21 ng/mL
time at which measurable plasma levels were detectable [4, 8]: ≤ 2 h
time of the initial plasma peak [4, 8]: 28 h
plasma peak during the first 24 hours following dosing [4, 9]: 2.39 ng/mL
Cmax ([4]; plasma N-desethyloxybutynin, 400 cm^2 application area): 2.72 ng/mL
Cmax ([4]; plasma, 800 cm^2 application area): 3.40 ng/mL

Cmax ([1]; human, plasma, topical, healthy volunteers, read-out: mean maximum plasma concentration (Cmax)): 2.17 ng/mL
half-life [1, 10]: ~18.4 h
time of second plasma peak after dosing [1]: approximately 48 hours
time at which measurable plasma levels were detectable (first sampling point) ([1]; healthy volunteers): 2 h
time over which mean plasma levels increased steadily to Cmax [1]: 24 h
Cmax ([2]; human, topical, plasma, healthy volunteers): 1.17 ng/mL
half-life [2, 10]: 17.7 h
time of second plasma peak after dosing [2]: approximately 48 hours
time at which measurable plasma levels were detectable (first sampling point) ([2]; healthy volunteers): 2 h
time over which mean plasma levels increased steadily to Cmax [2]: 26 h
concentration at 24 h ([5]; plasma, 3 g of 4.4% oxybutynin gel, after the initial application of 3 g of 4.4% oxybutynin gel, read-out: plasma concentration at the 24 hour post-dose timepoint, mean±SD): 4.02 ± 2.19 ng/mL
concentration at 24 h ([5]; plasma, 3 g of 4.4% oxybutynin gel, after the second daily application of 3 g of 4.4% oxybutynin gel, read-out: plasma concentration 24 hours after application, mean±SD): 4.47 ± 2.38 ng/mL
concentration at 24 h ([5]; plasma, 3 g of 4.4% oxybutynin gel, after the third daily application of 3 g of 4.4% oxybutynin gel, read-out: plasma concentration at the 24 hour post-dose timepoint, mean±SD): 5.86 ± 3.17 ng/mL
half-life ([5]; 3 g of 4.4% oxybutynin gel, plasma elimination after the third application of 4.4% oxybutynin gel, read-out: apparent half-life (converted)): ~18 h
Cmax ([5]; plasma, following the third application of 3 g of 4.4% oxybutynin gel, read-out: Cmax, mean±SD): 6.05 ± 3.21 ng/mL
average plasma concentration during the 20 hours following the application ([3]; after the final of 7 daily 3 g gel applications): 6.22 ng/mL
mean oxybutynin AUC higher than mean N-desethyloxybutynin AUC [3, 11]: ~41%
mean oxybutynin Cmax higher than mean N-desethyloxybutynin Cmax [3, 11]: approximately 18%
time within which measurable plasma levels were detectable [3, 11]: two
Cmax ([3]; human, plasma, topical, 3 g of oxybutynin gel, once daily, second period: 7 consecutive daily 3 g gel applications, N-desethyloxybutynin: maximum for the 0-24 hour interval, read-out: mean Cmax following the final gel application): 9.01 ng/mL
concentration at 0 h ([3]; human, plasma, topical, 3 g of oxybutynin gel, once daily, second period: 7 consecutive daily 3 g gel applications, read-out: mean plasma concentration at Time 0 of the final gel application): 4.63 ng/mL
half-life ([3]; human, topical, 3 g of oxybutynin gel, once daily, plasma, after the final of 7 daily 3 g gel applications): ~24 h
AUC ([3]; human, topical, 3 g of oxybutynin gel, once daily, plasma, second period, first 24 hours after the final of 7 daily 3 g gel applications): 149 ng·h/mL
AUC ([3]; human, topical, plasma, first period: single 3 g of 4.4% oxybutynin gel, 72 hour treatment period): 186 ng·h/mL
half-life ([3]; human, topical, plasma, first period: single 3 g of 4.4% oxybutynin gel): ~18 h
mean Cmax [3, 6]: 6.35 ng/mL
mean oxybutynin AUC higher than mean N-desethyloxybutynin AUC [3, 12]: ~19%
mean oxybutynin Cmax higher than mean N-desethyloxybutynin Cmax [3, 12]: approximately 40%
time of maximum concentration after the final gel application [3, 7]: approximately 23 hours
time at which measurable plasma levels were detectable [4, 8]: 2 h
time of the initial plasma peak [4, 8]: 24 h
plasma peak during the first 24 hours following dosing [4, 9]: 2.92 ng/mL
concentration at 24 hours ([4]; human, plasma, topical, 400 cm^2 application area, thighs, read-out: mean plasma level at the initial peak): 2.25 ng/mL
Cmax ([4]; human, topical, plasma, 800 cm^2 application area, read-out: Cmax): 3.8 ng/mL
SMILES: CCN(CC)CC#CCOC(=O)C(O)(c1ccccc1)C1CCCCC1 (stereo not shown) [oxybutynin]
